In patent US10428060B2, “PI-kinase inhibitors with anti-infective activity” (The Board of Trustees of the Leland Stanford Junior …, priority 2011, dated 2019):

Biological target: T1, PI4KIIIB (Bos taurus, UniProt O02810)
T1 construct: made in house; host or cells: COS-7 cells, transient transfection, anti-HA immunoprecipitate on protein G Sepharose beads
Assay: PI4KIIIB kinase assay
Format: biochemical, bovine

T1 sequence (O02810 whole entry): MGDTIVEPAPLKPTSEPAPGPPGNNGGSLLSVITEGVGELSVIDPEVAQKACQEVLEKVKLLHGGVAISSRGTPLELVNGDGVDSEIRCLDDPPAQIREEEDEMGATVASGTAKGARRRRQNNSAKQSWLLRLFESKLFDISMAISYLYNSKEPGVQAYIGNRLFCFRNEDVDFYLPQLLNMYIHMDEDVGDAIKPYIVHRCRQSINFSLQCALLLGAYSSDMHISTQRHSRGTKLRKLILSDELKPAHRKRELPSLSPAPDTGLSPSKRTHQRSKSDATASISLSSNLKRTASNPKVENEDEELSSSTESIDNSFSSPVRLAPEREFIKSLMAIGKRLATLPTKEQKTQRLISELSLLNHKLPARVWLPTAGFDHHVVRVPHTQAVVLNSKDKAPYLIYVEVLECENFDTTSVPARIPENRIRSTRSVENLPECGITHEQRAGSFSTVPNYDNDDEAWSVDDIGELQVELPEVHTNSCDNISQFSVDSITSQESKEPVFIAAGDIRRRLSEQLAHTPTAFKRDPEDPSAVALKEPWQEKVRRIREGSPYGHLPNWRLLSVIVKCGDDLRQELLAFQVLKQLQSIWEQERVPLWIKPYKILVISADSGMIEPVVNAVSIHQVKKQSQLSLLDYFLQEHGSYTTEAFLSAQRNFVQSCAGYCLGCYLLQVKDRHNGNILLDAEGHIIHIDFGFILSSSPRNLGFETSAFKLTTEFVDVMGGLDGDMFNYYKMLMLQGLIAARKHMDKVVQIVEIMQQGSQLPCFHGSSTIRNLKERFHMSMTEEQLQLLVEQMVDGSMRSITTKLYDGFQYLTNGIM

## COc1ncc(-c2sc(NC(=O)CC3CCOCC3)nc2C)cc1S(=O)(=O)NC1CCCC(O)C1 (stereo not shown) [Compound S-263]
  IC50: < 0.1 µM
